What was measured:
Format in all cases: cell-based
[1] = test system: Pseudomonas aeruginosa; assay: MIC against Gram-negative bacteria: Pseudomonas aeruginosa
In short: (§1)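 First, colonies from LB agar were grown in LB at 37° C, 185 rpm, to McFarland turbidity 0.5, then centrifuged and resuspended in fresh LB. Next, wells received 5×10^5 CFU/mL bacteria plus two-fold serially diluted EGF domain protein (triplicate). Finally, plates were shaken at 37° C and the no-growth concentration taken as MIC.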

[2] = test system: Aeromonas hydrophila; assay: MIC against Gram-negative bacteria: Aeromonas hydrophila
In short: as §1

[3] = test system: Klebsiella pneumonia; assay: MIC against Gram-negative bacteria: Klebsiella pneumonia
In short: as §1

[4] = test system: Citrobacter diversus; assay: MIC against Gram-negative bacteria: Citrobacter diversus
In short: as §1

[5] = test system: Enterobacter cloacae; assay: MIC against Gram-negative bacteria: Enterobacter cloacae
In short: as §1

[6] = test system: Serratia marcescens; assay: MIC against Gram-negative bacteria: Serratia marcescens
In short: as §1

[7] = test system: Proteus mirabilis; assay: MIC against Gram-negative bacteria: Proteus mirabilis
In short: as §1

[8] = test system: E. coli DH5α; assay: Antibacterial activity: MIC and growth curve against E. coli DH5α in 96-well plate; conditions: minimal inhibitory concentration against E. coli DH5α; 96-well plate, 5×10^5 CFU/mL, 37° C., judged after 8 h
In short: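 MIC taken as lowest protein level with no bacterial growth, tracked by A600 every 30 min during 37 °C, 175 rpm culture. Two-fold protein series 50-12.5 μg/mL final, triplicate wells, against 5×10^5 CFU/mL of LB-washed mid-log cells.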

[9] = test system: Proteus vulgaris; assay: MIC against Gram-negative bacteria: Proteus vulgaris
In short: as §1

[10] = test system: E. coli BL21; assay: MIC against Gram-negative bacteria: E. coli BL21
In short: as §1

[11] = test system: Moraxella catarrhalis; assay: MIC against Gram-negative bacteria: Moraxella catarrhalis
In short: as §1

[12] = Pseudomonas aeruginosa, 96-well plate, 5×10^5 CFU/mL, 37° C., 10 h
[13] = Aeromonas hydrophila, 96-well plate, 5×10^5 CFU/mL, 37° C., 10 h
[14] = Klebsiella pneumonia, 96-well plate, 5×10^5 CFU/mL, 37° C., 10 h
[15] = Citrobacter diversus, 96-well plate, 5×10^5 CFU/mL, 37° C., 10 h
[16] = Enterobacter cloacae, 96-well plate, 5×10^5 CFU/mL, 37° C., 10 h
[17] = Serratia marcescens, 96-well plate, 5×10^5 CFU/mL, 37° C., 10 h
[18] = Proteus mirabilis, 96-well plate, 5×10^5 CFU/mL, 37° C., 10 h
[19] = Proteus vulgaris, 96-well plate, 5×10^5 CFU/mL, 37° C., 10 h
[20] = E. coli BL21, 96-well plate, 5×10^5 CFU/mL, 37° C., 10 h
[21] = Moraxella catarrhalis, 96-well plate, 5×10^5 CFU/mL, 37° C., 10 h
[22] = P. aeruginosa, 10 h cultivation at 37° C., 5×10^5 CFU/mL
[23] = A. hydrophila, 10 h cultivation at 37° C., 5×10^5 CFU/mL
[24] = K. pneumonia, 10 h cultivation at 37° C., 5×10^5 CFU/mL
[25] = C. diversus, 10 h cultivation at 37° C., 5×10^5 CFU/mL
[26] = E. cloacae, 10 h cultivation at 37° C., 5×10^5 CFU/mL
[27] = S. marcescens, 10 h cultivation at 37° C., 5×10^5 CFU/mL
[28] = P. mirabilis, 10 h cultivation at 37° C., 5×10^5 CFU/mL
[29] = P. vulgaris, 10 h cultivation at 37° C., 5×10^5 CFU/mL
[30] = E. coli BL21, 10 h cultivation at 37° C., 5×10^5 CFU/mL
[31] = M. catarrhalis, 10 h cultivation at 37° C., 5×10^5 CFU/mL
[32] = 96-well plate, 5×10^5 CFU/mL, 37° C., 10 h
[33] = P. aeruginosa, 10 h cultivation at 37° C.
[34] = A. hydrophila, 10 h cultivation at 37° C.
[35] = K. pneumonia, 10 h cultivation at 37° C.
[36] = C. diversus, 10 h cultivation at 37° C.
[37] = E. cloacae, 10 h cultivation at 37° C.
[38] = S. marcescens, 10 h cultivation at 37° C.
[39] = P. mirabilis, 10 h cultivation at 37° C.
[40] = P. vulgaris, 10 h cultivation at 37° C.
[41] = E. coli BL21, 10 h cultivation at 37° C.
[42] = M. catarrhalis, 10 h cultivation at 37° C.

PRT1203 (DIDECAEGRHYCRENTMCVNTPGSFMCICKTGYIRIDDYSCT; listed as Homo sapiens)
50 µg/mL: MIC against P. aeruginosa [1, 12] | MIC against A. hydrophila [2, 13] | MIC against S. marcescens [6, 17] | MIC against M. catarrhalis [11, 21]
25 µg/mL: MIC against K. pneumonia [3, 14] | MIC [8] | MIC against P. vulgaris [9, 19]
12.5 µg/mL: MIC against C. diversus [4, 15] | MIC against E. cloacae [5, 16] | MIC against P. mirabilis [7, 18] | MIC against E. coli BL21 [10, 20]

PRT180 (DLDDCAGRACANGGTCVEGGGAHRCSCALGFGGRDCR; listed as Homo sapiens)
12.5 µg/mL: MIC (μg/mL) P. aeruginosa [1, 22] | MIC (μg/mL) K. pneumonia [3, 24] | MIC (μg/mL) C. diversus [4, 25] | MIC (μg/mL) S. marcescens [6, 27] | MIC [8] | MIC (μg/mL) E. coli BL21 [10, 30]
50 µg/mL: MIC (μg/mL) E. cloacae [5, 26] | MIC (μg/mL) P. mirabilis [7, 28]
25 µg/mL: MIC (μg/mL) A. hydrophila [2, 23] | MIC (μg/mL) P. vulgaris [9, 29] | MIC (μg/mL) M. catarrhalis [11, 31]

PRT1497 (KPVCEPGCGAHGTCHEPNKCQCQEGWHGRHCN; listed as Homo sapiens)
50 µg/mL: MIC (μg/mL) K. pneumonia [3, 14] | MIC [8] | MIC (μg/mL) P. vulgaris [9, 19] | MIC (μg/mL) M. catarrhalis [11, 21]
25 µg/mL: MIC (μg/mL) C. diversus [4, 15] | MIC (μg/mL) E. cloacae [5, 16] | MIC (μg/mL) E. coli BL21 [10, 20]
12.5 µg/mL: MIC (μg/mL) P. aeruginosa [1, 12] | MIC (μg/mL) A. hydrophila [2, 13] | MIC (μg/mL) S. marcescens [6, 17] | MIC (μg/mL) P. mirabilis [7, 18]

PRT1356 (KEQRCPSDCHGQGRCVDGQCICHEGFTGLDCG; listed as Homo sapiens)
25 µg/mL: MIC against A. hydrophila ([2]; Aeromonas hydrophila, 5×10^5 CFU/mL, 10 h cultivation at 37° C.) | MIC against E. cloacae ([5]; Enterobacter cloacae, 5×10^5 CFU/mL, 10 h cultivation at 37° C.) | MIC against P. vulgaris ([9]; Proteus vulgaris, 5×10^5 CFU/mL, 10 h cultivation at 37° C.) | MIC against M. catarrhalis ([11]; Moraxella catarrhalis, 5×10^5 CFU/mL, 10 h cultivation at 37° C.)
12.5 µg/mL: MIC against P. aeruginosa ([1]; Pseudomonas aeruginosa, 5×10^5 CFU/mL, 10 h cultivation at 37° C.) | MIC against C. diversus ([4]; Citrobacter diversus, 5×10^5 CFU/mL, 10 h cultivation at 37° C.) | MIC against S. marcescens ([6]; Serratia marcescens, 5×10^5 CFU/mL, 10 h cultivation at 37° C.) | MIC [8]
50 µg/mL: MIC against K. pneumonia ([3]; Klebsiella pneumonia, 5×10^5 CFU/mL, 10 h cultivation at 37° C.) | MIC against P. mirabilis ([7]; Proteus mirabilis, 5×10^5 CFU/mL, 10 h cultivation at 37° C.) | MIC against E. coli BL21 ([10]; E. coli BL21, 5×10^5 CFU/mL, 10 h cultivation at 37° C.)

PRT596 (CDCDPRTSQSSHCDQLTGQCPCKLGYGGKRCSECQENYYGDPPGRCIP; listed as Homo sapiens)
12.5 µg/mL: MIC E. cloacae [5, 32] | MIC P. mirabilis [7, 32] | MIC [8]
50 µg/mL: MIC P. aeruginosa [1, 32] | MIC C. diversus [4, 32] | MIC S. marcescens [6, 32]
25 µg/mL: MIC A. hydrophila [2, 32] | MIC K. pneumonia [3, 32] | MIC P. vulgaris [9, 32] | MIC E. coli BL21 [10, 32] | MIC M. catarrhalis [11, 32]

PRT434 (DVNECATENPCVQTCVNTYGSFICRCDPGYELEEDGVHCS; listed as Homo sapiens)
50 µg/mL: MIC [2, 23] | MIC [3, 24] | MIC [10, 30] | MIC [11, 31]
25 µg/mL: MIC [6, 27] | MIC [7, 28]
12.5 µg/mL: MIC [1, 22] | MIC [4, 25] | MIC [5, 26] | MIC [8] | MIC [9, 29]

PRT487 (SLCDLQPDFCLNDGKCDIMPGHGAICRCRVGENWWYRGKHCE; listed as Homo sapiens)
50 µg/mL: MIC against P. vulgaris [9, 32]
25 µg/mL: MIC against A. hydrophila [2, 32] | MIC against K. pneumonia [3, 32] | MIC against E. coli BL21 [10, 32] | MIC against M. catarrhalis [11, 32]
12.5 µg/mL: MIC against P. aeruginosa [1, 32] | MIC against C. diversus [4, 32] | MIC against E. cloacae [5, 32] | MIC against S. marcescens [6, 32] | MIC against P. mirabilis [7, 32] | MIC [8]

PRT971 (DINDCDPNPCLNGGSCQDGVGSFSCSCLPGFAGPRCA; listed as Homo sapiens)
12.5 µg/mL: MIC [4, 36] | MIC [9, 40] | MIC [10, 41]
25 µg/mL: MIC [5, 37] | MIC [6, 38] | MIC [11, 42]
100 µg/mL: MIC [3, 35]
50 µg/mL: MIC [1, 33] | MIC [2, 34] | MIC [7, 39] | MIC [8]

PRT167 (TPNPCENDGVCTDIGGDFRCRCPAGFIDKTC; listed as Homo sapiens)
25 µg/mL: MIC (μg/mL) C. diversus [4, 25] | MIC (μg/mL) P. mirabilis [7, 28] | MIC (μg/mL) P. vulgaris [9, 29]
12.5 µg/mL: MIC (μg/mL) P. aeruginosa [1, 22] | MIC (μg/mL) A. hydrophila [2, 23] | MIC (μg/mL) E. cloacae [5, 26] | MIC (μg/mL) S. marcescens [6, 27] | MIC [8] | MIC (μg/mL) M. catarrhalis [11, 31]
50 µg/mL: MIC (μg/mL) K. pneumonia [3, 24] | MIC (μg/mL) E. coli BL21 [10, 30]

PRT994 (DHNECLSQPCHPGSTCLDLLATFHCLCPPGLEGQLCE; listed as Homo sapiens)
25 µg/mL: MIC [1, 33] | MIC [5, 37] | MIC [6, 38] | MIC [7, 39]
50 µg/mL: MIC [3, 35] | MIC [4, 36] | MIC [8] | MIC [9, 40]
12.5 µg/mL: MIC [2, 34] | MIC [10, 41] | MIC [11, 42]

PRT1042 (SGFFCPSTHSCQNGGVFQTPQGSCSCPPGWMGTICS; listed as Homo sapiens)
12.5 µg/mL: MIC [1, 33] | MIC [11, 42]
50 µg/mL: MIC [2, 34] | MIC [4, 36] | MIC [5, 37] | MIC [6, 38] | MIC [7, 39] | MIC [10, 41]
25 µg/mL: MIC [3, 35] | MIC [8] | MIC [9, 40]

PRT76 (EVDLCYSRPCGPHGRCRSREGGYTCLCRDGYTGEHCE; listed as Homo sapiens)
25 µg/mL: MIC (μg/mL) P. aeruginosa [1, 12] | MIC (μg/mL) C. diversus [4, 15] | MIC (μg/mL) E. cloacae [5, 16] | MIC [8]
50 µg/mL: MIC (μg/mL) S. marcescens [6, 17]
12.5 µg/mL: MIC (μg/mL) A. hydrophila [2, 13] | MIC (μg/mL) K. pneumonia [3, 14] | MIC (μg/mL) P. mirabilis [7, 18] | MIC (μg/mL) P. vulgaris [9, 19] | MIC (μg/mL) E. coli BL21 [10, 20]
100 µg/mL: MIC (μg/mL) M. catarrhalis [11, 21]

PRT135 (PGHCSSYGSICHNGGKCVEKHNGYLCDCTNSPYEGPFCK; listed as Homo sapiens)
25 µg/mL: MIC (μg/mL) P. aeruginosa [1, 12] | MIC (μg/mL) C. diversus [4, 15] | MIC (μg/mL) E. cloacae [5, 16] | MIC (μg/mL) P. mirabilis [7, 18] | MIC [8]
12.5 µg/mL: MIC (μg/mL) A. hydrophila [2, 13] | MIC (μg/mL) K. pneumonia [3, 14] | MIC (μg/mL) P. vulgaris [9, 19] | MIC (μg/mL) E. coli BL21 [10, 20]
50 µg/mL: MIC (μg/mL) S. marcescens [6, 17] | MIC (μg/mL) M. catarrhalis [11, 21]

— patent US9833497B2, “Human originated EGF domain proteins and use of the same” (CHENGDU SOURCEBIO LIMITED-LIABILITY COMPANY, priority 2013, dated 2017)
